In ChEMBL document CHEMBL3603826, “6-Arylpyrazine-2-carboxamides: A New Core for Trypanosoma brucei Inhibitors” (J Med Chem, 2015):
≈ marks a conversion by molar mass, not a printed value.

Key:
[1] = Selectivity index, ratio of cytotoxic IC50 for rat L6 cells to EC50 for anti-parasitic activity against Trypanosoma brucei rhodesiense STIB 900; type: toxicity, cell-based; settings: read-out: Ratio IC50/EC50
[2] = Selectivity index, ratio of cytotoxic IC50 for HEK293 cells to EC50 for anti-parasitic activity against Trypanosoma brucei brucei 427 bloodstream parasites; type: toxicity, cell-based; settings: human, read-out: Ratio IC50/EC50
Plasmodium falciparum = assay: Anti-parasitic activity against chloroquine and pyrimethamine resistant Plasmodium falciparum K1 erythrocytic stages infected in human erythrocytes incubated for 48 hrs by [3H]-hypoxanthine incorporation assay; type: functional, organism-based
[3] = Partition coefficient, logD of the compound at pH 7.4 by HPLC method; type: physicochemical; settings: octanol/water
[4] = tested on: Trypanosoma brucei rhodesiense; assay: Anti-parasitic activity against Trypanosoma brucei rhodesiense STIB 900 trypomastigotes incubated for 70 hrs by alamar blue dye based assay; type: functional, organism-based; settings: STIB 900, 70 h
Trypanosoma cruzi = assay: Anti-parasitic activity against Trypanosoma cruzi Tulahuen C2C4 trypomastigotes infected rat L6 cells incubated for 96 hrs by CPRG/nonidet substrate based […]; type: functional, organism-based; settings: Tulahuen C2C4, L6, 96 h
serum albumin = serum albumin (Homo sapiens, UniProt P02768); assay: Binding affinity to human serum albumin by chromatographic method; type: ADME; settings: read-out: PB (converted)
Brain = assay: Drug concentration in Swiss mouse brain at normalized dose of 1 mg/kg, iv after 5 mins by LC-MS method; type: ADME, organism-based; settings: in vivo
[5] = Kinetic solubility in pH 6.5 phosphate buffer by nephelometry; type: physicochemical; settings: read-out: Kinetic_solubility
[6] = Intrinsic clearance in human liver microsomes assessed per mg protein at pH 7.4 at 0.5 uM in presence of NADPH regenerating system by LC-MS method; type: ADME; settings: read-out: CLH
[7] = tested on: Trypanosoma brucei brucei; assay: Anti-parasitic activity against Trypanosoma brucei brucei 427 bloodstream parasites incubated for 48 hrs by alamar blue dye based assay; type: functional, organism-based; settings: Trypanosoma brucei, 427, 48 h
[8] = Kinetic solubility in pH 2.0 0.01M HCl buffer by nephelometry; type: physicochemical; settings: read-out: Kinetic_solubility
[9] = Ratio of drug concentration in brain to plasma of Swiss mouse at normalized dose of 1 mg/kg, iv after 5 mins by LC-MS method; type: ADME, organism-based; settings: read-out: BPR
[10] = Toxicity against rat L6 cells incubated for 70 hrs by alamar blue dye based assay; type: cell-based
Leishmania donovani = assay: Anti-parasitic activity against Leishmania donovani MHOM/ET/67/L82 axenic amastigotes incubated for 70 hrs by alamar blue dye based assay; type: functional, organism-based; settings: MHOM/ET/67/L82, 70 h
[11] = Stability assessed as degradation half life; type: physicochemical
[12] = Apparent half life in Swiss mouse at 1.8 mg/kg, iv by LC-MS method; type: ADME, organism-based; settings: in vivo, read-out: t1/2(app) (converted)
[13] = Volume of distribution in Swiss mouse at 1.8 mg/kg, iv by LC-MS method; type: ADME, organism-based; settings: in vivo
[14] = Blood clearance in Swiss mouse at 1.8 mg/kg, iv by LC-MS method; type: ADME, organism-based; settings: whole blood
Mus musculus = assay: Blood clearance in Swiss mouse at 1.8 mg/kg, iv by LC-MS method relative to hepatic blood flow; type: ADME, organism-based, Liver; settings: in vivo
Liver microsome [15] = assay: Drug metabolism in human liver microsomes assessed as N-oxide metabolite formation after 60 mins at 10 uM absence of NADPH regenerating system and UDPGA by LC-MS method; type: ADME; settings: 1 h
[16] = Drug stability in human liver microsomes assessed as parent compound loss after 60 mins at 10 uM absence of NADPH regenerating system and UDPGA by LC-MS method; type: ADME; settings: read-out: Drug degradation
Liver microsome [17] = assay: Drug metabolism in human liver microsomes assessed as oxygenated metabolite formation after 60 mins at 10 uM presence of NADPH regenerating system and UDPGA by LC-MS method; type: ADME; settings: 1 h
[18] = Drug metabolism in human liver microsomes after 60 mins at 10 uM presence of NADPH regenerating system by LC-MS method; type: ADME; settings: read-out: Drug metabolism
Liver microsome [19] = assay: Drug metabolism in human liver microsomes assessed as oxygenated metabolite formation after 60 mins at 10 uM presence of NADPH regenerating system by LC-MS method; type: ADME; settings: 1 h
Liver microsome [20] = assay: Drug level in human liver microsomes treated with 10 uM 3-Amino-N-cyclopentyl-6-(m-tolyl)pyrazine-2-carboxamide assessed as compound formation after 60 mins presence of NADPH regenerating system by LC-MS method; type: ADME; settings: 1 h
Liver microsome [21] = assay: Drug level in human liver microsomes treated with 10 uM 3-Amino-N-cyclopentyl-6-(m-tolyl)pyrazine-2-carboxamide assessed as compound formation after 60 mins presence of NADPH regenerating system and UDPGA by LC-MS method; type: ADME; settings: 1 h
Liver microsome [22] = assay: Drug level in human liver microsomes treated with 10 uM 3-Amino-N-cyclopentyl-6-(m-tolyl)pyrazine-2-carboxamide assessed as compound formation after 60 mins absence of NADPH regenerating system and UDPGA by LC-MS method; type: ADME; settings: 1 h
[23] = Toxicity in late-stage human african trypanosomiasis patient assessed as mortality rate following 10-day schedule; type: organism-based; settings: in vivo

serum albumin, sequence (P02768 whole entry): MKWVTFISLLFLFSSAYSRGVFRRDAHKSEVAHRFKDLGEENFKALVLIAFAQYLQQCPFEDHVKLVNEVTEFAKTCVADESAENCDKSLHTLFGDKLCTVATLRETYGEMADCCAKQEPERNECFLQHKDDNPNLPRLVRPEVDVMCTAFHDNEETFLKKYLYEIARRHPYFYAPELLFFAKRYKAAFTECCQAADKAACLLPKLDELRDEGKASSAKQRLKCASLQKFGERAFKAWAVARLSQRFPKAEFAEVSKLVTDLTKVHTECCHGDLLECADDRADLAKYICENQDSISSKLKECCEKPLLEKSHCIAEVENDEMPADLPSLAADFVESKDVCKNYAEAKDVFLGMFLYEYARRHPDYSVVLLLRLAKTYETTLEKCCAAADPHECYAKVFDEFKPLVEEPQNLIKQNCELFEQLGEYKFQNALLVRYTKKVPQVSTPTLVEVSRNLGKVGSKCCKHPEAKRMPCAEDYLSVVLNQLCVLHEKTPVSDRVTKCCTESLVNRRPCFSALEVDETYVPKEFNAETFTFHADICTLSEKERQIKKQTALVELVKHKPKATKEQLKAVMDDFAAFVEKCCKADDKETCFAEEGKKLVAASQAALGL

Nc1ncc(-c2ccccc2)nc1C(=O)NC1CCCC1
selectivity ratio [1]: 140 | selectivity ratio [2]: > 368 | EC50 (Plasmodium falciparum): 6.1 µM | logD [3]: 4.1 | EC50 [4]: 0.14 µM | EC50 (Trypanosoma cruzi): 13 µM | fraction unbound (serum albumin): 0.042 | Drug uptake (Brain): 1192.3 ng/g | solubility kinetic [5]: 25 µg/mL (≈ 88.5 µM) | microsomal CLint at 0.5 µM [6]: 198 µL/min/mg | EC50 [7]: 0.26 µM | solubility kinetic [8]: 6.3 µg/mL (≈ 22.3 µM) | Kp at 5 min [9]: 5.7 | IC50 at 70 h [10]: 20 µM | EC50 (Leishmania donovani): > 10 µM | half-life [11]: 9 min

CCC(C)NC(=O)c1nc(-c2cccc(Cl)c2)cnc1N (centres undefined)
selectivity ratio [1]: 20 | selectivity ratio [2]: 175 | EC50 (Plasmodium falciparum): 1.1 µM | logD [3]: 4.4 | EC50 [4]: 2.02 µM | EC50 (Trypanosoma cruzi): 25 µM | fraction unbound (serum albumin): 0.028 | solubility kinetic [5]: 1.6 µg/mL (≈ 5.25 µM) | microsomal CLint at 0.5 µM [6]: 147 µL/min/mg | EC50 [7]: 0.48 µM | solubility kinetic [8]: 1.6 µg/mL (≈ 5.25 µM) | IC50 at 70 h [10]: 39 µM | EC50 (Leishmania donovani): > 10 µM | half-life [11]: 12 min

CCC(C)NC(=O)c1nc(-c2ccc(F)cc2)cnc1N (centres undefined)
selectivity ratio [1]: 61 | selectivity ratio [2]: > 206 | EC50 (Plasmodium falciparum): 9 µM | logD [3]: 4 | EC50 [4]: 0.22 µM | EC50 (Trypanosoma cruzi): 17 µM | fraction unbound (serum albumin): 0.058 | Drug uptake (Brain): 1069.5 ng/g | solubility kinetic [5]: 50 µg/mL (≈ 173 µM) | microsomal CLint at 0.5 µM [6]: 119 µL/min/mg | EC50 [7]: 0.4 µM | solubility kinetic [8]: 6.3 µg/mL (≈ 21.9 µM) | Kp at 5 min [9]: 5.1 | IC50 at 70 h [10]: 17 µM | EC50 (Leishmania donovani): > 10 µM | half-life [11]: 15 min

CCC(CC)NC(=O)c1nc(-c2cccc(C)c2)cnc1N
selectivity ratio [1]: 150 | selectivity ratio [2]: 774 | EC50 (Plasmodium falciparum): 4.1 µM | logD [3]: 4.7 | EC50 [4]: 0.14 µM | EC50 (Trypanosoma cruzi): 20 µM | fraction unbound (serum albumin): 0.036 | solubility kinetic [5]: 1.6 µg/mL (≈ 5.36 µM) | microsomal CLint at 0.5 µM [6]: 194 µL/min/mg | EC50 [7]: 0.11 µM | solubility kinetic [8]: 1.6 µg/mL (≈ 5.36 µM) | IC50 at 70 h [10]: 20 µM | EC50 (Leishmania donovani): > 10 µM | half-life [11]: 9 min

CCC(CC)NC(=O)c1nc(-c2ccc(F)cc2)cnc1N
selectivity ratio [1]: 540 | selectivity ratio [2]: 1024 | EC50 (Plasmodium falciparum): 7.6 µM | logD [3]: 4.4 | EC50 [4]: 0.053 µM | EC50 (Trypanosoma cruzi): 15 µM | fraction unbound (serum albumin): 0.036 | half-life [12]: 546 min | solubility kinetic [5]: 3.1 µg/mL (≈ 10.3 µM) | Vd [13]: 14.7 L/kg | microsomal CLint at 0.5 µM [6]: 84 µL/min/mg | EC50 [7]: 0.08 µM | clearance [14]: 69 mL/min/kg | solubility kinetic [8]: 3.1 µg/mL (≈ 10.3 µM) | IC50 at 70 h [10]: 28 µM | EC50 (Leishmania donovani): > 10 µM | half-life [11]: 21 min | CL (Mus musculus): 60%

CCC(CC)NC(=O)c1nc(-c2ccc(F)c(C)c2)cnc1N
selectivity ratio [1]: 630 | selectivity ratio [2]: 423 | EC50 (Plasmodium falciparum): 1.8 µM | logD [3]: 4.8 | EC50 [4]: 0.038 µM | EC50 (Trypanosoma cruzi): 13 µM | fraction unbound (serum albumin): 0.022 | solubility kinetic [5]: < 1.6 µg/mL | microsomal CLint at 0.5 µM [6]: 212 µL/min/mg | EC50 [7]: 0.025 µM | solubility kinetic [8]: < 1.6 µg/mL | IC50 at 70 h [10]: 24 µM | EC50 (Leishmania donovani): > 10 µM | half-life [11]: 8 min

CCC(CC)NC(=O)c1nc(-c2ccc(F)cc2C#N)cnc1N
selectivity ratio [1]: 230 | selectivity ratio [2]: 850 | EC50 (Plasmodium falciparum): 2.9 µM | logD [3]: 4.2 | EC50 [4]: 0.089 µM | EC50 (Trypanosoma cruzi): 19 µM | fraction unbound (serum albumin): 0.029 | solubility kinetic [5]: 1.6 µg/mL (≈ 4.89 µM) | microsomal CLint at 0.5 µM [6]: 66 µL/min/mg | EC50 [7]: 0.1 µM | solubility kinetic [8]: < 1.6 µg/mL | IC50 at 70 h [10]: 20 µM | EC50 (Leishmania donovani): > 10 µM | half-life [11]: 26 min

N#Cc1ccccc1-c1cnc(N)c(C(=O)NC2CCCC2)n1
selectivity ratio [1]: 19 | selectivity ratio [2]: 416 | EC50 (Plasmodium falciparum): 2.5 µM | logD [3]: 3.9 | EC50 [4]: 0.57 µM | EC50 (Trypanosoma cruzi): 5.2 µM | fraction unbound (serum albumin): 0.038 | solubility kinetic [5]: < 1.6 µg/mL | microsomal CLint at 0.5 µM [6]: 165 µL/min/mg | EC50 [7]: 0.2 µM | solubility kinetic [8]: 3.1 µg/mL (≈ 10.1 µM) | IC50 at 70 h [10]: 11 µM | EC50 (Leishmania donovani): > 10 µM | half-life [11]: 10 min

Cc1cccc(-c2cnc(N)c(C(=O)NC3CCCC3)n2)c1
selectivity ratio [1]: 1790 | selectivity ratio [2]: 2380 | Drug metabolism (Liver microsome [15]): metabolite_detected | EC50 (Plasmodium falciparum): 4.9 µM | metabolised at 1 h, 10 µM [16]: 6% | logD [3]: 4.6 | EC50 [4]: 0.024 µM | EC50 (Trypanosoma cruzi): 17 µM | fraction unbound (serum albumin): 0.023 | solubility kinetic [5]: 3.1 µg/mL (≈ 10.5 µM) | Drug metabolism (Liver microsome [17]): metabolite_detected | microsomal CLint at 0.5 µM [6]: 266 µL/min/mg | EC50 [7]: 0.035 µM | solubility kinetic [8]: 3.1 µg/mL (≈ 10.5 µM) | metabolised at 1 h, 10 µM [18]: 92% | IC50 at 70 h [10]: 42 µM | EC50 (Leishmania donovani): > 10 µM | half-life [11]: 7 min | Drug metabolism (Liver microsome [19]): metabolite_detected

Nc1ncc(-c2cccc(CO)c2)nc1C(=O)NC1CCCC1
Drug metabolism (Liver microsome [20]): metabolite_detected | Drug metabolism (Liver microsome [21]): metabolite_detected

Cc1cccc(-c2c[n+]([O-])c(N)c(C(=O)NC3CCCC3)n2)c1
Drug metabolism (Liver microsome [22]): metabolite_detected | Drug metabolism (Liver microsome [20]): metabolite_detected | Drug metabolism (Liver microsome [21]): metabolite_detected

Nc1ncc(-c2cccc(C(=O)O)c2)nc1C(=O)NC1CCCC1
Drug metabolism (Liver microsome [20]): metabolite_detected | Drug metabolism (Liver microsome [21]): metabolite_detected

Cc1cccc(-c2cnc(N)c(C(=O)NC3=CCCC3)n2)c1
Drug metabolism (Liver microsome [20]): metabolite_detected | Drug metabolism (Liver microsome [21]): metabolite_detected

Nc1nc(N)nc(Nc2ccc([As]3SCC(CO)S3)cc2)n1 (centres undefined) [MELARSOPROL]
mortality at 10 day [23]: 5.9%
